Where only a bound is given, the exact number is not on record here.

The subject of assay [1] is Resistant Plutella xylostella R4 (carries the RyR mutation G4946E). In words: Resistant Plutella xylostella R4 (Diamond back moth) larvicide L1, feeding/contact, artificial diet in 24-well plates. The assay is classed as in vivo. To be noted: for pest or weed control at 50 µg/mL: Plutella xylostella, 192 h, read-out: control of the resistant strain of Plutella xylostella R4. Here is the method: Resistant Plutella xylostella R4 (Diamond back moth) larvicide L1, feeding/contact 24-well microtiter plates with artificial diet were treated with aqueous test solutions prepared from 10′000 ppm DMSO stock solutions by pipetting. After drying, around 30 Plutella eggs were pipetted through a plastic stencil onto a gel blotting paper and the plate was closed with it. The samples were assessed for mortality in comparison to untreated samples 8 days after infestation.
Chlorantraniliprole was used as standard and a resistance factor of 242 was obtained for this strain
Plutella xylostella resistant strain R4 originated in the lab in 2021 from crossing the R1 strain with a lab-reared susceptible P. xylostella strain (SUS). R4 can be reared and tested on artificial diet and also carries the RyR mutation G4946E conferring resistance to diamides. The strain is selected approximately every two weeks with chlorantraniliprole. The following compounds, according to the present invention, gave at least 80% control of the resistant strain of Plutella xylostella R4 at 50 ppm or below: P11, P18, P26, P31, P33, P34, P36, P38, P42, P43, P46, P49, P50, P52, P56, P58, P60, P61, P63, P64, P65, P66, P67, P73, P76, P84, P97, P99, P102, P105.

Assay [2] deals with Plutella xylostella (Diamond back moth) ryanodine receptor, containing the G4946E resistance mutation. In words: In vitro calcium fluorescence assay (Fluo-8 NW, FDSS) in human embryonic kidney cells expressing the ryanodine receptor. The assay is classed as cell-based. To be noted: table, EC50 (compound)/EC50 (cyantraniliprole), G4946E RyR in HEK cells. How it is done: Human embryonic kidney cells expressing the Plutella xylostella (Diamond back moth) ryanodine receptor, containing the G4946E resistance mutation, are loaded with Fluo-8 No Wash (NW) calcium-sensitive dye which responds by fluorescence to a change in intracellular calcium (e.g. stimulated by activation of ryanodine receptor). Test compounds are added in 10 rates to a 384-well plate containing dye-loaded cells and the fluorescent signal is measured using the Hamamatsu FDSS (Functional Drug Screening system). Dose-response curves are plotted to estimate the EC50. EC50 are normalized against an in-assay reference standard (cyantraniliprole) to address inter-assay variability. The ratio for a given compound is then obtained by the following formula:
REC50=EC50 (compound)/EC50 (cyantraniliprole).

For assay [3], the system named is Resistant Plutella xylostella R1 (multi-resistant larvae having the G4946E resistance mutation). In words: Resistant Plutella xylostella R1 (Diamond back moth) larvicide L3, feeding/contact, sprayed Chinese cabbage leaves. The settings on record: for pest or weed control at 50 µg/mL: Plutella xylostella, 96 h, read-out: control of the resistant strain of Plutella xylostella R1. The assay is classed as in vivo. How it is done: Resistant Plutella xylostella R1 (Diamond back moth) larvicide L3, feeding/contact Chinese cabbage plants were sprayed with diluted test solutions in an application chamber. Cut off leaves were placed into petri dishes with wetted filter paper and infested 1 day after application with 10 L3 multi-resistant Plutella xylostella larvae having the G4946E resistance mutation.
Samples were assessed 4 days after infestation for mortality and growth regulation.
Chlorantraniliprole was used as standard and a resistance factor of 146 was obtained for this strain.
Plutella xylostella resistant strain R1 originally collected from Taiwan in 2012 that carries the RyR mutation G4946E conferring resistance to diamides. The strain is reared on cabbage plants (Brassica aleracea) and selected approximately every two weeks with chlorantraniliprole.

With `CNC(=O)c1cc(Cl)cc(C)c1NC(=O)c1cc(Br)nn1-c1ncccc1Cl` [Chlorantraniliprole, chlorantraniliprole, reference compound], the resistance factor was determined as 242 in assay [1] (strain R4, chlorantraniliprole used as standard) and 146 in assay [3] (strain R1, chlorantraniliprole used as standard). In addition, in assay [2] (secondary amide analogue), the “REC50 (Comparative compound)” value is on record as 0.35.
Consider `Cc1cc(Br)cc(C(N)=O)c1NC(=O)c1cc(C(F)(F)F)nn1-c1ncccc1Cl` [Compound P26, N-(4-bromo-2-carbamoyl-6-methyl-phenyl)-2-(3-chloro-2-pyridyl)-5-(trifluoromethyl)pyrazole-3-carboxamide], for which the pest or weed control at 50 µg/mL in assay [1] and in assay [3] was ≥ 80% each time. In addition, in assay [2], the “REC50 (Compound of the invention)” value worked out at 0.19.
As to `Cc1cc(C#N)cc(C(N)=O)c1NC(=O)c1cc(C(F)(F)F)nn1-c1ncccc1Cl` [Compound P31, N-(2-carbamoyl-4-cyano-6-methyl-phenyl)-2-(3-chloro-2-pyridyl)-5-(trifluoromethyl)pyrazole-3-carboxamide], the pest or weed control at 50 µg/mL in assay [1] and in assay [3] was ≥ 80% throughout. In assay [2], the “REC50 (Compound of the invention)” value was 0.28.
For `NC(=O)c1cc(Cl)cc(Cl)c1NC(=O)c1cc(Br)nn1-c1ncc(Cl)cc1Cl` [Compound P33, 5-bromo-N-(2-carbamoyl-4,6-dichloro-phenyl)-2-(3,5-dichloro-2-pyridyl) pyrazole-3-carboxamide], the pest or weed control at 50 µg/mL in assay [1] and in assay [3] was ≥ 80% throughout. In addition, the “REC50 (Compound of the invention)” value in assay [2] worked out at 0.31.
For `NC(=O)c1cc(Cl)cc(Br)c1NC(=O)c1cc(Br)nn1-c1ncccc1Cl` [Compound P34, 5-bromo-N-(2-bromo-6-carbamoyl-4-chloro-phenyl)-2-(3-chloro-2-pyridyl) pyrazole-3-carboxamide], the pest or weed control at 50 µg/mL in assay [1] and in assay [3] was ≥ 80% in each case. The “REC50 (Compound of the invention)” value in assay [2] is 0.18.
As to `Cc1cc(Cl)cc(C(N)=O)c1NC(=O)c1cc(Cn2nnc(-c3ccc(Br)cc3)n2)nn1-c1ncccc1Cl` [Compound P49, 5-[[5-(4-bromophenyl)tetrazol-2-yl]methyl]-N-(2-carbamoyl-4-chloro-6-methyl-phenyl)-2-(3-chloro-2-pyridyl)pyrazole-3-carboxamide], the pest or weed control at 50 µg/mL in assay [1] and in assay [3] was ≥ 80% in each case.
For the molecule `NC(=O)c1cc(Cl)cc(Cl)c1NC(=O)c1cc(I)nn1-c1ncccc1Cl` [Compound P50, N-(2-carbamoyl-4,6-dichloro-phenyl)-2-(3-chloro-2-pyridyl)-5-iodo-pyrazole-3-carboxamide], the pest or weed control at 50 µg/mL in assay [1] and in assay [3] was ≥ 80% each time.
For the molecule `NC(=O)c1cc(Cl)cc(Cl)c1NC(=O)c1cc(Cn2nnc(-c3ccc(C(F)(F)F)cc3)n2)nn1-c1ncccc1Cl` [Compound P58, N-(2-carbamoyl-4,6-dichloro-phenyl)-2-(3-chloro-2-pyridyl)-5-[[5-[4-(trifluoromethyl)phenyl]tetrazol-2-yl]methyl]pyrazole-3-carboxamide], the pest or weed control at 50 µg/mL in assay [1] and in assay [3] was ≥ 80% in each case.
For the molecule `Cc1cc(I)cc(C(N)=O)c1NC(=O)c1cc(Br)nn1-c1ncccc1Cl` [Compound P63, 5-bromo-N-(2-carbamoyl-4-iodo-6-methyl-phenyl)-2-(3-chloro-2-pyridyl) pyrazole-3-carboxamide], the pest or weed control at 50 µg/mL in assay [1] and in assay [3] was ≥ 80% in each case. In addition, the “REC50 (Compound of the invention)” value in assay [2] was 0.19.
For `Cc1cc(C#N)cc(C(N)=O)c1NC(=O)c1cc(Cn2nnc(-c3ccc(C(F)(F)F)cc3)n2)nn1-c1ncccc1Cl` [Compound P67, N-(2-carbamoyl-4-cyano-6-methyl-phenyl)-2-(3-chloro-2-pyridyl)-5-[[5-[4-(trifluoromethyl)phenyl]tetrazol-2-yl]methyl]pyrazole-3-carboxamide], the pest or weed control at 50 µg/mL in assay [1] and in assay [3] was ≥ 80% in each case. Moreover, the “REC50 (Compound of the invention)” value in assay [2] was found to be 0.63.

These data come from patent US20240308988A1, “Method For Controlling Diamide Resistant Pests and Compounds Therefor” (priority 2021, published 2024).
